Reference: patent US5677288A, “Use of aminoglycosides to protect against excitotoxic neuron damage” (Cypros Pharmaceutical Corporation, priority 1994, dated 1997)
“Also recorded” adds a separate entry of the source. Read-outs that look alike come from different tables or passages of the source.

Assays:
[1] = system: N-type calcium channels (N-channels); format: binding, rats or mice; details: for IC50: omega-conotoxin binding, brain membrane fragments, read-out: N-channel IC50
PTZ-induced seizures [2] = experiment: PTZ-induced seizures in rats (ICV or IP); details: 2 mg/kg
Protocol: Seizure studies were also performed in male Sprague Dawley rats (250-300 grams). In these studies, cannulas were implanted in the lateral cerebral ventricles of several animals so that the test drugs could be administered directly into the lateral ventricle of the brain. The drugs being tested were administered 15 minutes before the administration of a convulsant drug, PTZ, at a dose of 60 mg/kg (in a saline vehicle) injected subcutaneously.
A second series of experiments was performed where neomycin sulfate was administered by the IP 30 minutes prior to PTZ injection.

[3] = system: electroconvulsive seizures; experiment: electroconvulsive seizures (ECS) in mice; details: ICV, scale one to six, six = no seizure activity
Protocol: This was accomplished using a set of platinum electrodes placed subcutaneously in two skull regions of Swiss Webster (20-25 gram) mice. The stimulus voltage was 22 mv at a duration of 0.125 mSec.
The seizures were graded on a severity scale of one to six. A score of six represented a complete absence of seizure activity, while a score of one represented the presence of a full tonic-clonic seizure with total hind leg extension. Test drugs were administered via the ICV route in a total volume of 2.5 microliters, 15 minutes prior to the administration of the electroconvulsive shock.

[4] = system: N-channels on blood platelets; format: binding, human; details: approximate results from initial tests, read-out: Conotoxin blockage
blood platelets = experiment: inhibition of ADP-induced platelet aggregation; format: cell-based, human; details: 20 μM ADP, approximate results from initial tests
[5] = system: CA1 neurons in hippocampal tissue slices; experiment: protection of rat hippocampal tissue slices (CA1 population spike recovery) against hypoxia; format: cell-based, Sprague-Dawley rats
PTZ-induced seizures [6] = experiment: PTZ-induced seizures in mice (ICV); format: in vivo, Swiss Webster mice; details: for % having seizures: PTZ 70 mg/kg
Protocol: In addition to the in vivo gerbil experiments described in Example 4, aminoglycosides were tested in various ways to evaluate their ability to inhibit experimentally-induced seizures in mice. In one set of tests, male Swiss Webster white mice weighing 20-25 grams were used. The animals (10 per group) were pre-injected with 3 microliters (μL) of either a saline solution (control group), or saline solution containing varying dosages of neomycin sulfate. The injection was performed via the […] route, to insure access of the neomycin to neurons; when these experiments were initially performed, questions concerning the ability of neomycin to penetrate the BBB had not yet been addressed. These injections were performed as described in Haley and McCormick 1957. Twenty minutes after the injections, the animals were administered a dose of 70 mg/kg of the convulsion-inducing drug pentylenetetrazol (PTZ), injected subcutaneously in saline solution. Control animals treated with ICV saline have full seizures within seven minutes following this dose of PTZ.

PTZ-induced seizures [7] = details: in words; not measured in these tests; cited from earlier work
L-type Ca2+ channel = experiment: inhibition of tritiated dihydropyridine PN-200 binding to the L-type Ca2+ channel; details: in words
Protocol: These tests were carried out as follows. Brain tissue was used from rats or mice that had been anesthetized with halothane and decapitated. Membrane fractions were prepared as follows. Tissue samples were mixed with 25 tissue-volumes of 50 mM Tris-HCl buffer, pH 7.5. Tissue-buffer mixtures were homogenized using a Brinkman Polytron homogenizer, and resulting tissue homogenate was centrifuged at 2,400 g to pellet non-membrane derived material. The supernatant containing the brain membrane fragments was centrifuged at 30,000 g in a refrigerated (4° C.) centrifuge for 20 minutes. The pellet was resuspended in 100 tissue-volumes of the Tris-HCl buffer and centrifuged again as above. The process was repeated two more times, and the resulting pellet was resuspended in Tris-HCl buffer solution. The suspended tissue contained synaptosomal and other neurally derived membrane fragments with intact N-channels.

C[C@H]1O[C@H](O[C@H]2[C@H](O)[C@@H](O)[C@@H](O)[C@H](O)[C@@H]2O)[C@@H](N)C[C@@H]1NC(=N)C(=O)O [Kasugamycin]
IC50 [1]: > 1000 µM

NC[C@H]1O[C@H](O[C@H]2[C@H](O)[C@@H](O[C@H]3O[C@H](CO)[C@@H](O)[C@H](N)[C@H]3O)[C@H](N)C[C@@H]2N)[C@H](N)C[C@@H]1O [Tobramycin]
IC50 [1]: > 50 µM

CN1C(=O)CN=C(c2ccccc2)c2cc(Cl)ccc21 [Diazepam]
% having seizures (PTZ-induced seizures [2]): 75%
Seizure Score ([3]; 5 ug): 4.4

Gentamicin
N-channel blocking potency (in words) [1]: intermediate
N-channel blocking potency (in words) ([1]; listed as gentamicin): most potent N-channel blockers
IC50 [1]: 10 µM
IC50 [4]: 5 µM
IC50 (blood platelets): 2000 µM
Seizure Score ([3]; 40 ug): 4.9
CA1 orthodromic PS recovery ([5]; 2.5 mM, stimulated slices): 60±23%
neuronal protection against hypoxia (summary) ([5]; in words): restore orthodromic and antidromic activity; also recorded: high level of neuronal protection against hypoxia

OC[C@H]1O[C@@H](n2cnc3c(NC4CCCCC4)ncnc32)[C@H](O)[C@@H]1O [Cyclohexyladenosine, cyclohexyladenosine]
% having seizures (PTZ-induced seizures [6]; 2 μg): 40%
behavioral side effects (PTZ-induced seizures [6]; in words): various behavioral side effects such as ataxia (lack of muscular control, as evidenced by an inability to walk properly) and sedation
known cardiovascular side effects (PTZ-induced seizures [7]): known to provoke hypotension and bradycardia

CNC1C(OC2C(OC3C(O)C(O)C(N=C(N)N)C(O)C3N=C(N)N)OC(C)C2(O)CO)OC(CO)C(O)C1O (stereo not drawn) [Dihydrostreptomicin]
IC50 [1]: > 50 µM

NC[C@@H]1CC[C@@H](N)[C@@H](O[C@H]2[C@H](O)[C@@H](O[C@H]3O[C@H](CO)[C@@H](O)[C@H](N)[C@H]3O)[C@H](N)C[C@@H]2N)O1 [Dibekacin]
IC50 [1]: 60 µM
L-channel IC50 (L-type Ca2+ channel): No inhibition

Butirosin
IC50 [1]: 150 µM

CN[C@@H]1[C@@H](O)[C@@H](O[C@@H]2[C@@H](O)[C@H](O[C@H]3OC(CN)=CC[C@H]3N)[C@@H](N)C[C@H]2N)OC[C@]1(C)O [Sisomicin]
N-channel blocking potency (in words) [1]: high potency
N-channel blocking potency (in words) ([1]; listed as sisomicin): most potent N-channel blockers
IC50 [1]: 5 to 10 µM
L-channel IC50 (L-type Ca2+ channel): No inhibition
CA1 antidromic PS amplitude recovery ([5]; 1.0 mM, stimulated slices): 70±15%
CA1 orthodromic PS amplitude recovery ([5]; 1.0 mM, stimulated slices): 76±9%
CA1 antidromic PS recovery ([5]; 1.0 mM, unstimulated slices): 93±3%
CA1 orthodromic PS recovery ([5]; 1.0 mM, unstimulated slices): 93±3%
hypoxic injury potential (HIP) profile ([5]; in words): HIP profiles evolved with a time course similar to untreated slices
neuronal protection against hypoxia (summary) ([5]; in words): restore orthodromic and antidromic activity; also recorded: high level of neuronal protection against hypoxia

NC[C@@H]1O[C@H](O[C@H]2[C@@H](O)[C@H](O[C@@H]3[C@@H](O)[C@H](N)C[C@H](N)[C@H]3O[C@H]3O[C@H](CN)[C@@H](O)[C@H](O)[C@H]3N)O[C@@H]2CO)[C@H](N)[C@@H](O)[C@@H]1O.O=S(=O)(O)O [Neomycin Sulfate]
% having seizures (PTZ-induced seizures [6]; 5 μg ICV): 50%
% having seizures (PTZ-induced seizures [6]; 10 μg ICV): 60%
protection against seizures (PTZ-induced seizures [6]; five or ten micrograms ICV, in words): substantially protected against seizures

NC[C@H]1O[C@H](O[C@H]2[C@H](O)[C@@H](O[C@H]3O[C@H](CO)[C@@H](O)[C@H](N)[C@H]3O)[C@H](N)C[C@@H]2N)[C@H](N)[C@@H](O)[C@@H]1O [Bekanamycin]
IC50 [1]: > 100 µM
L-channel IC50 (L-type Ca2+ channel): No inhibition

NC[C@@H]1O[C@H](O[C@H]2[C@@H](O)[C@H](O[C@@H]3[C@@H](O)[C@H](N)C[C@H](N)[C@H]3O[C@H]3O[C@H](CO)[C@@H](O)[C@H](O)[C@H]3N)O[C@@H]2CO)[C@H](N)[C@@H](O)[C@@H]1O [Paromomycin]
IC50 [1]: 40 µM
L-channel IC50 (L-type Ca2+ channel): No inhibition

CNC1C(O)C(NC)C2OC3(O)C(=O)CC(C)OC3OC2C1O (stereo not drawn) [Spectiomycin]
IC50 [1]: > 1000 µM

NC[C@H]1O[C@H](O[C@H]2[C@H](O)[C@@H](O[C@H]3O[C@H](CO)[C@@H](O)[C@H](N)[C@H]3O)[C@H](N)C[C@@H]2N)[C@H](O)[C@@H](O)[C@@H]1O [Kanamycin]
IC50 [1]: > 50 µM
L-channel IC50 (L-type Ca2+ channel): No inhibition

NC[C@H]1O[C@H](O[C@H]2[C@H](O)[C@@H](O)[C@H](N)C[C@@H]2N)[C@H](N)[C@@H](O)[C@@H]1O [Neamine]
IC50 [1]: 25 µM

NC[C@H]1O[C@H](O[C@H]2[C@H](O[C@@H]3O[C@H](CO)[C@@H](O)[C@H]3O)[C@@H](O)[C@H](N)C[C@@H]2N)[C@H](N)[C@@H](O)[C@@H]1O [Ribostamycin]
L-channel IC50 (L-type Ca2+ channel): No inhibition

[H]/N=C(/N)N[C@H]1[C@H](O)[C@@H](O)[C@H](O[C@@H]2O[C@@H](C)[C@](O)(C=O)[C@H]2O[C@@H]2O[C@@H](CO)[C@H](O)[C@@H](O)[C@@H]2NC)[C@@H](N/C(N)=N\[H])[C@@H]1O [Streptomycin]
N-channel blocking potency (in words) [1]: low potency
N-channel blocking potency (in words) ([1]; listed as streptomycin): somewhat less potent N-channel blocker
IC50 [1]: 25 µM
IC50 [4]: 15 µM
IC50 (blood platelets; Homo sapiens, Platelet): 5000 µM
L-channel IC50 (L-type Ca2+ channel): No inhibition
protection of CA1 antidromic population spikes ([5]; 10 mM): 38±22%
neuronal protection against hypoxia (summary) ([5]; in words): ineffective in reducing hypoxic damage to hippocampal tissue slices except when administered in high dosages; also recorded: only marginally effective and required high doses
neuronal protection against hypoxia (summary) ([5]; in words, listed as streptomycin): some potency but at substantially lower levels; also recorded: lower degree of neuroprotection

CN[C@H]1C[C@@H](N)[C@H](O)[C@@H](O[C@@H]2O[C@H](CO)[C@H](O)[C@@H]3OC4(O[C@H]23)O[C@H]([C@@H](N)CO)[C@H](O)[C@H](O)[C@H]4O)[C@@H]1O (stereo partly drawn) [Hygromycin B]
IC50 [1]: > 1000 µM

NC[C@@H]1O[C@H](O[C@H]2[C@@H](O)[C@H](O[C@@H]3[C@@H](O)[C@H](N)C[C@H](N)[C@H]3O[C@H]3O[C@H](CO)[C@@H](O)C[C@H]3N)O[C@@H]2CO)[C@H](N)[C@@H](O)[C@@H]1O[C@H]1O[C@H](CO)[C@@H](O)[C@H](O)[C@@H]1O [Lividomycin A]
IC50 [1]: 50 µM
L-channel IC50 (L-type Ca2+ channel): No inhibition

NCC[C@H](O)C(=O)N[C@@H]1C[C@H](N)[C@@H](O[C@H]2O[C@H](CN)[C@@H](O)[C@H](O)[C@H]2O)[C@H](O)[C@H]1O[C@H]1O[C@H](CO)[C@@H](O)[C@H](N)[C@H]1O [Amikacin]
IC50 [1]: 45 µM
